Measurements: patent publication EP4670717A1, “PYRROLIDINE-FUSED MYRTANOL DERIVATIVES AS INHIBITORS AND/OR DEGRADERS OF IDO1 UND USE THEREOF” (Max-Planck-Gesellschaft zur Förderung der Wissenschaften …, priority 2024, dated 2025)

Target: T1, IDO1 (Homo sapiens, UniProt P14902)
T1 construct: BxPC3 cells were seeded in phenol red-free RPMI 1640 medium; endogenous in cells; host or cells: BxPC3 cells stimulated with IFN-γ (50 ng/mL)
Assay: Kyn assay in BxPC-3 cells (Kyn levels after IFN-γ and Trp);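 further: kyn levels expressed relative to DMSO-treated control cells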
Assay type: cell-based
Conditions: BxPC-3 cells incubated with IFN-γ, Trp and the compounds for 48 h; read-out: Kyn assay IC50 ± SD
Protocol: BxPC3 cells were seeded in phenol red-free RPMI 1640 medium in 1536-well or 384-well plates (Greiner #782086, Corning #3770) 24 h prior to the addition of compounds, IFN-γ (50 ng/mL, PeproTech) and L-Trp (380 µM, Sigmal-Aldrich). After 48 h of incubation, first cell viability was accessed by the addition of Hoechst-33342. Afterwards, trichloroacetic acid (TCA, Sigma-Aldrich) was added to a final concentration of 7 % and incubated for 10 min prior to a centrifugation step of 10 min at 1620 × g. Kyn levels were determined by means of the Kyn sensor^7 at a final concentration of 17.5 µM in sensor buffer (50 mM H3PO4 and 120 mM NaCl (pH=1)). Fluorescence intensity (excitation: 535 nm, emission: 595 nm) was measured using a Spectramax Paradigm reader (Molecular Devices). Data were normalized to the values for cells that were treated with DMSO.
For the manual assay, BxPC3 or SKOV3 cells were seeded in clear 96-well or 384-well plates, respectively, 24 h prior to compound treatment and IFN-γ (50 or 5 ng/mL, respectively) and L-Trp (380 µM) addition as described before.^7 48 h after treatment, TCA was added and Kyn levels were detected by means of 2 % w/v of p-DMAB (Ehrlich reagent) in acetic acid as described by Braun et al^29. The absorbance of the Ehrlich reagent was detected at 492 nm and at 650 nm as background control was measured on Spark® multimode microplate plate reader (Tecan, Austria). Kyn levels were determined by subtracting the absorbance value at 650 nm and presented relative to the DMSO control. Dose-response curves and IC50 values were generated and fitted with GraphPad Prism 6.0 (GraphPad software, USA) using four-parameter variable slope non-linear regression curve fit.
Cells were incubated with IFN-γ, Trp and the compounds for 48 h prior to detection of Kyn levels.

T1 sequence (P14902 whole entry): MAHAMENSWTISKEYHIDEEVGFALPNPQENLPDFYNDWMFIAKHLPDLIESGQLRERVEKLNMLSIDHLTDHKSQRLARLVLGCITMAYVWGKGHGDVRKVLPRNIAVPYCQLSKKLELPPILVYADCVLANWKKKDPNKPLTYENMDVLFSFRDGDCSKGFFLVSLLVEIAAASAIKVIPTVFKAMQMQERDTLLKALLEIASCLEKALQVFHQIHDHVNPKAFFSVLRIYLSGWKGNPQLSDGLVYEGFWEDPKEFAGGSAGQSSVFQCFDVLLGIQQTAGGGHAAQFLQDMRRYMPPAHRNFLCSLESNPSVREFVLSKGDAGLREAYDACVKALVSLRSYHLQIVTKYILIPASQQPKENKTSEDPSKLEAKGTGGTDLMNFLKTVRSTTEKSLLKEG

Compound | IC50
CCc1ccc(NC(=O)OC[C@]23CN(S(=O)(=O)c4ccc(C(C)(C)C)cc4)C[C@H]2C[C@H]2C[C@@H]3C2(C)C)cc1 [compound 2, ((3aS,4R,6R,7aS)-2-((4-(tert-butyl)phenyl)sulfonyl)-5,5-dimethyloctahydro-3aH-4,6-methanoisoindol-3a-yl)methyl (4-ethylphenyl)carbamate] | 1 to 5 µM
CC(C)(C)c1ccc(S(=O)(=O)N2C[C@H]3C[C@H]4C[C@H](C4(C)C)[C@@]3(COC(=O)Nc3ccccc3)C2)cc1 [compound 6, ((3aS,4R,6R,7aS)-2-((4-(tert-butyl)phenyl)sulfonyl)-5,5-dimethyloctahydro-3aH-4,6-methanoisoindol-3a-yl)methyl phenylcarbamate] | 5 to 10 µM
Cc1ccc(NC(=O)OC[C@]23CN(S(=O)(=O)c4ccc(C(C)(C)C)cc4)C[C@H]2C[C@H]2C[C@@H]3C2(C)C)c(C)c1 [compound 7, ((3aS,4R,6R,7aS)-2-((4-(tert-butyl)phenyl)sulfonyl)-5,5-dimethyloctahydro-3aH-4,6-methanoisoindol-3a-yl)methyl (2,4-dimethylphenyl)carbamate] | 1 to 5 µM
CC(C)(C)c1ccc(S(=O)(=O)N2C[C@H]3C[C@H]4C[C@H](C4(C)C)[C@@]3(COC(=O)Nc3ccc(Cl)cc3)C2)cc1 [compound 9, ((3aS,4R,6R,7aS)-2-((4-(tert-butyl)phenyl)sulfonyl)-5,5-dimethyloctahydro-3aH-4,6-methanoisoindol-3a-yl)methyl (4-chlorophenyl)carbamate] | 0.2 to 1 µM
CC(C)(C)c1ccc(S(=O)(=O)N2C[C@H]3C[C@H]4C[C@H](C4(C)C)[C@@]3(COC(=O)Nc3ccc(Br)cc3)C2)cc1 [compound 10, ((3aS,4R,6R,7aS)-2-((4-(tert-butyl)phenyl)sulfonyl)-5,5-dimethyloctahydro-3aH-4,6-methanoisoindol-3a-yl)methyl (4-bromophenyl)carbamate] | 0.2 to 1 µM
CC(C)(C)c1ccc(S(=O)(=O)N2C[C@H]3C[C@H]4C[C@H](C4(C)C)[C@@]3(COC(=O)Nc3ccccc3I)C2)cc1 [compound 12, ((3aS,4R,6R,7aS)-2-((4-(tert-butyl)phenyl)sulfonyl)-5,5-dimethyloctahydro-3aH-4,6-methanoisoindol-3a-yl)methyl (2-iodophenyl)carbamate] | 0.2 to 1 µM
CC(C)(C)c1ccc(S(=O)(=O)N2C[C@H]3C[C@H]4C[C@H](C4(C)C)[C@@]3(COC(=O)Nc3ccccc3Br)C2)cc1 [compound 13, ((3aS,4R,6R,7aS)-2-((4-(tert-butyl)phenyl)sulfonyl)-5,5-dimethyloctahydro-3aH-4,6-methanoisoindol-3a-yl)methyl (2-bromophenyl)carbamate] | 0.2 to 1 µM
CC(C)(C)c1ccc(S(=O)(=O)N2C[C@H]3C[C@H]4C[C@H](C4(C)C)[C@@]3(COC(=O)Nc3cccc(Br)c3)C2)cc1 [compound 14, ((3aS,4R,6R,7aS)-2-((4-(tert-butyl)phenyl)sulfonyl)-5,5-dimethyloctahydro-3aH-4,6-methanoisoindol-3a-yl)methyl (3-bromophenyl)carbamate] | 5 to 10 µM
CC(C)(C)c1ccc(S(=O)(=O)N2C[C@H]3C[C@H]4C[C@H](C4(C)C)[C@@]3(COC(=O)Nc3ccc(C#CCCO)cc3)C2)cc1 [compound 18, ((3aS,4R,6R,7aS)-2-((4-(tert-butyl)phenyl)sulfonyl)-5,5-dimethyloctahydro-3aH-4,6-methanoisoindol-3a-yl)methyl (4-(4-hydroxybut-1-yn-1-yl)phenyl)carbamate] | 1 to 5 µM
COc1ccc(NC(=O)OC[C@]23CN(S(=O)(=O)c4ccc(C(C)(C)C)cc4)C[C@H]2C[C@H]2C[C@@H]3C2(C)C)cc1 [compound 20, ((3aS,4R,6R,7aS)-2-((4-(tert-butyl)phenyl)sulfonyl)-5,5-dimethyloctahydro-3aH-4,6-methanoisoindol-3a-yl)methyl (4-methoxyphenyl)carbamate] | 1 to 5 µM
CC(C)(C)c1ccc(S(=O)(=O)N2C[C@H]3C[C@H]4C[C@H](C4(C)C)[C@@]3(COC(=O)Nc3ccc(C#N)cc3)C2)cc1 [compound 23, ((3aS,4R,6R,7aS)-2-((4-(tert-butyl)phenyl)sulfonyl)-5,5-dimethyloctahydro-3aH-4,6-methanoisoindol-3a-yl)methyl (4-cyanophenyl)carbamate] | 1 to 5 µM
Cc1ccc(NC(=O)OC[C@]23CN(S(=O)(=O)C(C)C)C[C@H]2C[C@H]2C[C@@H]3C2(C)C)cc1 [compound 30, ((3aS,4R,6R,7aS)-2-(isopropylsulfonyl)-5,5-dimethyloctahydro-3aH-4,6-methanoisoindol-3a-yl) methyl p-tolylcarbamate] | 1 to 5 µM
CC1(C)CCC(C)(C)c2cc(S(=O)(=O)N3C[C@H]4C[C@H]5C[C@H](C5(C)C)[C@@]4(COC(=O)Nc4ccc(I)cc4)C3)ccc21 [compound 46] | 0.2 to 1 µM

More lines, now with the values ahead:

IC50 | Compound
5 to 10 µM | Cc1ccc(NC(=O)OC[C@]23CN(S(=O)(=O)C4CCCCC4)C[C@H]2C[C@H]2C[C@@H]3C2(C)C)cc1 [compound 31, ((3aS,4R,6R,7aS)-2-(cyclohexylsulfonyl)-5,5-dimethyloctahydro-3aH-4,6-methanoisoindol-3a-yl)methyl p-tolylcarbamate]
1 to 5 µM | Cc1ccc(NC(=O)OC[C@]23CN(S(=O)(=O)c4ccc(C(F)(F)F)cc4)C[C@H]2C[C@H]2C[C@@H]3C2(C)C)cc1 [compound 32, ((3aS,4R,6R,7aS)-5,5-dimethyl-2-((4-(trifluoromethyl)phenyl)sulfonyl)octahydro-3aH-4,6-methanoisoindol-3a-yl)methyl p-tolylcarbamate]
1 to 5 µM | Cc1ccc(NC(=O)OC[C@]23CN(S(=O)(=O)c4ccc(OC(F)(F)F)cc4)C[C@H]2C[C@H]2C[C@@H]3C2(C)C)cc1 [compound 34, ((3aS,4R,6R,7aS)-5,5-dimethyl-2-((4-(trifluoromethoxy)phenyl)sulfonyl)octahydro-3aH-4,6-methanoisoindol-3a-yl)methyl p-tolylcarbamate]
1 to 5 µM | Cc1ccc(NC(=O)OC[C@]23CN(S(=O)(=O)c4ccc(C5(C(F)(F)F)N=N5)cc4)C[C@H]2C[C@H]2C[C@@H]3C2(C)C)cc1 [compound 35, ((3aS,4R,6R,7aS)-5,5-dimethyl-2-((4-(3-(trifluoromethyl)-3H-diazirin-3-yl)phenyl)sulfonyl)octahydro-3aH-4,6-methanoisoindol-3a-yl)methyl p-tolylcarbamate]
5 to 10 µM | Cc1ccc(NC(=O)OC[C@]23CN(S(=O)(=O)c4ccccc4Br)C[C@H]2C[C@H]2C[C@@H]3C2(C)C)cc1 [compound 36, ((3aS,4R,6R,7aS)-2-((2-bromophenyl)sulfonyl)-5,5-dimethyloctahydro-3aH-4,6-methanoisoindol-3a-yl)methyl p-tolylcarbamate]
1 to 5 µM | CC1(C)[C@H]2C[C@@H]3CN(S(=O)(=O)c4ccccc4)C[C@]3(COC(=O)Nc3ccc(I)cc3)[C@@H]1C2 [compound 37, ((3aS,4R,6R,7aS)-5,5-dimethyl-2-(phenylsulfonyl)octahydro-3aH-4,6-methanoisoindol-3a-yl)methyl (4-iodophenyl)carbamate]
0.2 to 1 µM | CC1(C)[C@H]2C[C@@H]3CN(S(=O)(=O)c4ccc5ccccc5c4)C[C@]3(COC(=O)Nc3ccc(I)cc3)[C@@H]1C2 [compound 38, ((3aS,4R,6R,7aS)-5,5-dimethyl-2-(naphthalen-2-ylsulfonyl)octahydro-3aH-4,6-methanoisoindol-3a-yl)methyl (4-iodophenyl)carbamate]
0.2 to 1 µM | Cc1ccccc1S(=O)(=O)N1C[C@H]2C[C@H]3C[C@H](C3(C)C)[C@@]2(COC(=O)Nc2ccc(I)cc2)C1 [compound 39, ((3aS,4R,6R,7aS)-5,5-dimethyl-2-(o-tolylsulfonyl)octahydro-3aH-4,6-methanoisoindol-3a-yl)methyl (4-iodophenyl)carbamate]
1 to 5 µM | Cc1cccc(S(=O)(=O)N2C[C@H]3C[C@H]4C[C@H](C4(C)C)[C@@]3(COC(=O)Nc3ccc(I)cc3)C2)c1 [compound 40, ((3aS,4R,6R,7aS)-5,5-dimethyl-2-(m-tolylsulfonyl)octahydro-3aH-4,6-methanoisoindol-3a-yl)methyl (4-iodophenyl)carbamate]
0.2 to 1 µM | Cc1ccc(S(=O)(=O)N2C[C@H]3C[C@H]4C[C@H](C4(C)C)[C@@]3(COC(=O)Nc3ccc(I)cc3)C2)cc1 [compound 41, ((3aS,4R,6R,7aS)-5,5-dimethyl-2-tosyloctahydro-3aH-4,6-methanoisoindol-3a-yl)methyl (4-iodophenyl)carbamate]
< 0.2 µM | CC(C)c1ccc(S(=O)(=O)N2C[C@H]3C[C@H]4C[C@H](C4(C)C)[C@@]3(COC(=O)Nc3ccc(I)cc3)C2)cc1 [compound 43, ((3aS,4R,6R,7aS)-2-((4-isopropylphenyl)sulfonyl)-5,5-dimethyloctahydro-3aH-4,6-methanoisoindol-3a-yl)methyl (4-iodophenyl)carbamate]
0.2 to 1 µM | CC1(C)[C@H]2C[C@@H]3CN(S(=O)(=O)c4ccc(-c5ccccc5)cc4)C[C@]3(COC(=O)Nc3ccc(I)cc3)[C@@H]1C2 [compound 44, ((3aS,4R,6R,7aS)-2-([1,1'-biphenyl]-4-ylsulfonyl)-5,5-dimethyloctahydro-3aH-4,6-methanoisoindol-3a-yl)methyl (4-iodophenyl)carbamate]
1 to 5 µM | CC1(C)[C@H]2C[C@@H]3CN(S(=O)(=O)c4ccc(C5CCCCC5)cc4)C[C@]3(COC(=O)Nc3ccc(I)cc3)[C@@H]1C2 [compound 45, ((3aS,4R,6R,7aS)-2-((4-cyclohexylphenyl)sulfonyl)-5,5-dimethyloctahydro-3aH-4,6-methanoisoindol-3a-yl)methyl (4-iodophenyl)carbamate]
0.2 to 1 µM | CC(C)(C)Cc1ccc(S(=O)(=O)N2C[C@H]3C[C@H]4C[C@H](C4(C)C)[C@@]3(COC(=O)Nc3ccc(I)cc3)C2)cc1 [compound 47, ((3aS,4R,6R,7aS)-5,5-dimethyl-2-((4-neopentylphenyl)sulfonyl)octahydro-3aH-4,6-methanoisoindol-3a-yl)methyl (4-iodophenyl)carbamate]
